Test results taken from US20160166540A1, “MODULATORS FOR ATP-BINDING CASSETTE TRANSPORTERS” (VERTEX PHARMACEUTICALS INCORPORATED, priority 2011, published 2016).

Target: T1, ΔF508-CFTR (Homo sapiens, UniProt P13569, DEL508-508)
T1 construct: expressed in transfected cells
Experiment: Membrane potential optical assay for ΔF508-CFTR correction (identification of correction compounds)
Type: cell-based
Conditions: NIH3T3; NIH 3T3 cells stably expressing ΔF508-CFTR; read-out: % Efficacy
Text: Assays for Detecting and Measuring M508-CFTR Correction Properties of Compounds
Membrane potential optical methods for assaying ΔF508-CFTR modulation properties of compounds.
The assay utilizes fluorescent voltage sensing dyes to measure changes in membrane potential using a fluorescent plate reader (e.g., FLIPR III, Molecular Devices, Inc.) as a readout for increase in functional ΔF508-CFTR in NIH 3T3 cells. The driving force for the response is the creation of a chloride ion gradient in conjunction with channel activation by a single liquid addition step after the cells have previously been treated with compounds and subsequently loaded with a voltage sensing dye.
To identify small molecules that correct the trafficking defect associated with ˜F508-CFTR; a single-addition HTS assay format was developed. Assay Plates containing cells are incubated for ˜2-4 hours in tissue culture incubator at 37° C., S % CO2, 90% humidity. Cells are then ready for compound exposure after adhering to the bottom of the assay plates.
The cells were incubated in serum-free medium for 16-24 hrs in tissue culture incubator at 37° C., S % CO2, 90% humidity in the presence or absence (negative control) of test compound. […] The addition of Cl^−-free medium promoted Cl^− efflux in response to ΔF508-CFTR activation and the resulting membrane depolarization was optically monitored using voltage sensor dyes. […]

T1 sequence (P13569 with tags, fused parts or gaps DEL508-508): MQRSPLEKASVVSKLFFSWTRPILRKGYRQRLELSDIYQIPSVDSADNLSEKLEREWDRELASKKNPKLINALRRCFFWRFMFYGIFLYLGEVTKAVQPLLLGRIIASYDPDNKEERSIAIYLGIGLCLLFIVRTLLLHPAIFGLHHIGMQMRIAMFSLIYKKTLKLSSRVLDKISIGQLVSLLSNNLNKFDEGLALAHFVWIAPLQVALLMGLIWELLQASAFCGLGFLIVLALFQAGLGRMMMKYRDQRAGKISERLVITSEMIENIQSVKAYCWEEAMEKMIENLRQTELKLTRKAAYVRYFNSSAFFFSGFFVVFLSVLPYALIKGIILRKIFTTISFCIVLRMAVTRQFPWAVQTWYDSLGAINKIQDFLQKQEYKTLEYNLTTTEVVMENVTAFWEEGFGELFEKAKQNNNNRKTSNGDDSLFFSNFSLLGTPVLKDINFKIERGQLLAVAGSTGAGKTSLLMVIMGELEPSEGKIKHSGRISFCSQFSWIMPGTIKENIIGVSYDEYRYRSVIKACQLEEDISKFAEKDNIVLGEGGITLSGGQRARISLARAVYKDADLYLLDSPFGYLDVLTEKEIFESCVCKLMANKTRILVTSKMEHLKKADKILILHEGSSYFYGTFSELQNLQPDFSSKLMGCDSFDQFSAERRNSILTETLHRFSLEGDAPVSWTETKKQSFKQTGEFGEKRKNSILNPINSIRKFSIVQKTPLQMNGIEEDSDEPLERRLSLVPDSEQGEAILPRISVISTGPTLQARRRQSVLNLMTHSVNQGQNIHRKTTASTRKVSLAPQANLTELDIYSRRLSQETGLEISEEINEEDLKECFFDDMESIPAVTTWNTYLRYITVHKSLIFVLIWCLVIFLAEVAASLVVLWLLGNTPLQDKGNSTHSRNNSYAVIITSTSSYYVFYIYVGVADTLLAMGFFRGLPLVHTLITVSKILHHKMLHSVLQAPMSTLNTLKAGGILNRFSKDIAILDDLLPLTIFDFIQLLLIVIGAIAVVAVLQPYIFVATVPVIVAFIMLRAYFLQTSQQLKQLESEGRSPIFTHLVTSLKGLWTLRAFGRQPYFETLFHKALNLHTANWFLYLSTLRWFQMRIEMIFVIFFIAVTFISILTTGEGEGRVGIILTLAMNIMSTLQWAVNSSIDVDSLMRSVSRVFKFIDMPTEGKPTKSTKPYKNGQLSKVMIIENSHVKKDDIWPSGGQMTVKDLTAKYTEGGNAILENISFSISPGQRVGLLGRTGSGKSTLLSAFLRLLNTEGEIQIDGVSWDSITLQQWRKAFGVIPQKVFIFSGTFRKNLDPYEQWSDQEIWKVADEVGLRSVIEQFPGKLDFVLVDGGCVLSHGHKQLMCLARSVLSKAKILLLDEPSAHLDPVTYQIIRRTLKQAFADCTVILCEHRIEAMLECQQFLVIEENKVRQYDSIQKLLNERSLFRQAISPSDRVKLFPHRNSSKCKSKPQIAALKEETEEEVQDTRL

## CC1(C)c2cc3cc(NC(=O)C4(c5ccc6c(c5)OC(F)(F)O6)CC4)c(F)cc3n2C[C@H](CO)OC1O (stereo partly drawn) [1-(2,2-difluorobenzo[d][1,3]dioxol-5-yl)-N-((4R)-8-fluoro-2-hydroxy-4-(hydroxymethyl)-1,1-dimethyl-1,2,4,5-tetrahydro-[1,4]oxazepino[4,5-a]indol-9-yl)cyclopropanecarboxamide]
  Emax: > 100%
